Measured values published in US9326988B2, “Treatment and/or prevention of parkinson's disease dementia with ceftriaxone” (CHUNG SHAN MEDICAL UNIVERSITY, priority 2012, dated 2016).

System: normal rats
Assay: T-maze test (working memory) in sham-operated rats
Assay type: in vivo, male Wistar rats
Settings: determined 10th day (FIG. 3)
Protocol: The rats in the sham-operated groups were generally subjected to the same surgical procedures for the rats in the pathological control group, the preventive groups, and the treatment groups, except that an equal volume of saline was infused bilaterally into the SNc of the mesencephalon of rats in the shame-operated groups.
5 days before the MPTP-HCl injection, ceftriaxone (Sigma) was administered to the rats in the preventive groups 1,2 via intraperitoneal injection respectively at a daily dose of 100 mg/kg and at a daily dose of 200 mg/kg until the end of the 14th day after the MPTP-HCl injection. After the MPTP-HCl injection, ceftriaxone was administered to the rats in the treatment group 1 and the sham-operated groups 2,3 via intraperitoneal injection respectively at a daily dose of 200 mg/kg, at a daily dose of 100 mg/kg, and at a daily dose of 200 mg/kg, and saline was administered to the rats in the pathological control group and the sham-operated group 1 via intraperitoneal injection at a daily dose of 1 mL/kg. In addition, starting on the 3rd day after the MPTP-HCl injection, ceftriaxone was administered to the rats in the treatment groups 2,3 via intraperitoneal injection respectively at a daily dose of 100 mg/kg and at a daily dose of 200 mg/kg. […]

correct response rate compared to sham-operated group 1 (saline) (sham-operated group 2: 100 mg/kg daily i.p. to 14th day): no statistical significance | correct response rate compared to sham-operated group 1 (saline) (sham-operated group 3: 200 mg/kg daily i.p. to 14th day): no statistical significance
SMILES: CO/N=C(\C(=O)N[C@@H]1C(=O)N2C(C(=O)O)=C(CSc3nc(=O)c(=O)[nH]n3C)CS[C@H]12)c1csc(N)n1 [ceftriaxone, Ceftriaxone]
